Earlier results on one compound are cited in patent US8791152B2, “Stable pharmaceutical composition containing docetaxel and a method of manufacturing the same” (SK Chemicals Co., Ltd., priority 2006, dated 2014).

Regarding `CC(=O)O[C@@]12CO[C@@H]1C[C@H](O)[C@@]1(C)C(=O)[C@H](O)C3=C(C)[C@@H](OC(=O)[C@H](O)[C@@H](NC(=O)OC(C)(C)C)c4ccccc4)C[C@@](O)([C@@H](OC(=O)c4ccccc4)[C@H]21)C3(C)C` [Docetaxel, docetaxel], the Solubility in water entry is “almost insoluble in water”.
